This assay concerns evaluators. The experiment in a line: Six evaluators swished a 150 ppm solution of each compound; flavor quality and cooling reported at intervals after spitting out. As to conditions: for quality of the flavor and cooling characteristics, 30 Minutes: 10 ml of 150 ppm solution swished 15 seconds and spit out, 30 minutes after spitting out; for cooling lasting (duration) / Peak cool at (time): 10 ml of 150 ppm solution swished 15 seconds, time after spitting out. Type of assay: in vivo, human. How it is done:
The enantiomeric compounds of the present invention, Examples 1 through 3 (E1, E2 and E3), were tested against the prior art racemic mixture of 2-(5-methyl-2-(methylethyl)-cyclohexyloxy)-ethan-1-ol (C1). Six evaluators swished 10 ml of a 150 ppm solution of each compound for 15 seconds and spit out. The quality of the flavor and cooling characteristics were reported at various intervals after spitting out.

For the compound `CC1CCC(C(C)C)C(OCCO)C1` (centres unmarked) [Example C1, (d,l)-2-(5′-methyl-2′-(methylethyl)cyclohexyloxy)ethan-1-ol, reference compound], the “quality of the flavor and cooling characteristics, 30 Minutes” value (shortened to “quality”) is reported as “no cooling”; the “cooling lasting (duration)” value was in the range of 10 to 15 min.
With `CC(C)[C@@H]1CC[C@@H](C)C[C@H]1OCCO` [Example E1, [1′R,2′S,5′R]-2-(5′-methyl-2′-(methylethyl)cyclohexyloxy)ethan-1-ol], the “quality” value is given as “cooling”; the “Peak cool at (time)” value was 15 min.
In the case of `CC(C)[C@@H]1CC[C@@H](C)C[C@H]1OCCCO` [Example E2, [1′R,2′S,5′R]-3-(5′-methyl-2′-(methylethyl)cyclohexyloxy)propan-1-ol], the “Peak cool at (time)” value lay within 10 to 13 min and the “cooling lasting (duration)” value was “cooling 30+ min”.
For the compound `CC(C)[C@@H]1CC[C@@H](C)C[C@H]1OCCCCO` [Example E3, [1′R,2′S,5′R]-4-(5′-methyl-2′-(methylethyl)cyclohexyloxy)butan-1-ol], the “quality” value was “cooling”; the “Peak cool at (time)” value was determined as 7 min.
